Like-named read-outs stand apart in the source and are kept apart here. Where a SMILES comes first, the peptide text is derived from it. Where no end group is shown, it is not given here. [ ]: non-standard residue; d: D form. The star is where a group is joined. Desaminotyrosyl = O=C(CCc1ccc(O)cc1)*; Cya = N[C@@H](CS(=O)(=O)O)C(=O)O; X1 = O=C(Cc1ccc(O)cc1)*
How the values were obtained:
[1] = system: bovine anterior pituitary cell culture; assay type: cell-based; details: for potency (in words): summary of the bovine pituitary cell culture assays
[2] = proteolytic stability in bovine plasma (HPLC, modified Frohman method); details: for remaining at 1 h: bovine plasma; for proteolytic stability in bovine plasma (in words): summary
[3] = system: meal-fed Holstein steers; assay: serum growth hormone (GH) response after intravenous injection in steers (Procedure B); assay type: in vivo; details: for serum growth hormone (GH) response, difference from Leu²⁷ bGRF(1-32)NH₂: compared with Leu²⁷ bGRF(1-32)NH₂; for area under the GH response curve: in comparison to bGRF(1-44)NH₂ (100%), first study; for relative growth hormone areas: in comparison to the standard bGRF(1-44)NH₂ (Area 100%), procedure B, second study
From the text: The synthetic peptides prepared in Examples 1, 2 and 3 (Compounds 1, 2 and 3 respectively), bGRF(1-44)NH2 and […] bGRF(1-32)NH2 were also given to meal-fed Holstein steers by intravenous injection (Procedure B) and the serum growth hormone (GH) response evaluated. […] In comparison to bGRF(1-44)NH2 (100%), the area under the GH response curve was 122% for […] bGRF(1-32)NH2, 100% for Compound #1, 106% for Compound #2, and 111% for Compound #3. Holstein steers (265 +/- 5kg) were housed in individual stalls 18-20°C) and exposed to 16h light:8h darkness (lights on at 0400h). Steers are meal-fed once daily at 1000h and trained to consume their total daily feed intake in 2 h. The diet consisted of rolled corn plus a mineral/vitamin premix and alfalfa hay cubes fed at 160% maintenance energy requirements on a bodyweight basis. Steers gained approximately 0.75 kg/h/d. In a 5 x […] Latin Square design 10 steers were assigned randomly to receive the following treatments. (a) bGRF(1-44)NH2, (b) […] bGRF(1-32)NH2, (c) Compound #3, (d) Compound #1, and (e) Compound #2. The GRFs were dissolves in saline (10μg/ml) and administered at 3nM/100 kg bodyweight as single iv injection at 0800 h, 2 h between feeding. A cannula was inserted into a jugular vein at least one day before treatment. Blood (6 ml) was collected at 20-min interval from 40 min before until 120 min after injection with additional samples collected at 5, 10 and 15 min after injection. Serum obtained from the samples was assayed from GH concentration. The number of steers responding to injection fo the various GRFs tested (P=0.42) ranged from 9 of 10 to 10 of 10 depending on the treatment. Using procedure B, compounds were tested for growth hormone release in steers. In comparison to the standard bGRF(1-44)NH2 (Area 100%), the test compounds gave the following relative growth hormone areas: Compound 4, 233%; compound 5, 140%; compound 6, 160%; compound 7, 126%; compound 8, 307%; compound 9, 260%; and compound 11, 173%.

[4] = first assay, potency as a fraction of bGRF(1-44)NH₂
[5] = subsequent assay, potency as a fraction of bGRF(1-44)NH₂
[6] = 3nM/100 kg bodyweight, single iv injection

Compound	remaining at 1 h [2]	area under the GH response curve [3, 6]	the potency of bGRF(1-44)NH₂ [1]	relative growth hormone areas [3]	also measured
CC[C@H](C)[C@H](NC(=O)[C@H](C)NC(=O)[C@H](CS(=O)(=O)O)NC(=O)[C@H](C)NC(=O)[C@@H](N)Cc1ccc(O)cc1)C(=O)N[C@@H](Cc1ccccc1)C(=O)N[C@H](C(=O)N[C@@H](CC(N)=O)C(=O)N[C@@H](CO)C(=O)N[C@@H](Cc1ccc(O)cc1)C(=O)N[C@@H](CCCNC(=N)N)C(=O)N[C@@H](CCCCN)C(=O)N[C@H](C(=O)N[C@@H](CC(C)C)C(=O)NCC(=O)N[C@@H](CCC(N)=O)C(=O)N[C@@H](CC(C)C)C(=O)N[C@@H](CO)C(=O)N[C@@H](C)C(=O)N[C@@H](CCCNC(=N)N)C(=O)N[C@@H](CCCCN)C(=O)N[C@@H](CC(C)C)C(=O)N[C@@H](CC(C)C)C(=O)N[C@@H](CCC(N)=O)C(=O)N[C@@H](CC(=O)O)C(=O)N[C@H](C(=O)N[C@@H](CC(C)C)C(=O)N[C@@H](CC(N)=O)C(=O)N[C@@H](CCCNC(=N)N)C(=O)N[C@@H](CCC(N)=O)C(=O)N[C@@H](CCC(N)=O)C(=O)NCC(N)=O)[C@@H](C)CC)C(C)C)[C@@H](C)O [Compound 3, Cya³, Leu ²⁷bGRF(1-32)NH₂] (H-YA[Cya]AIFTNSYRKVLGQLSARKLLQDILNRQQG-NH2)	42%	111%	–	–	the potency of bGRF(1-44)NH₂ [1, 4]: 0.31; the potency of bGRF(1-44)NH₂ [1, 5]: 0.41; serum growth hormone (GH) response, difference from Leu²⁷ bGRF(1-32)NH₂ [3, 6]: No significant differences
CC[C@H](C)[C@H](NC(=O)[C@H](C)NC(=O)[C@H](CS(=O)(=O)O)NC(=O)[C@@H](C)NC(=O)[C@@H](N)Cc1ccc(O)cc1)C(=O)N[C@@H](Cc1ccccc1)C(=O)N[C@H](C(=O)N[C@@H](CC(N)=O)C(=O)N[C@@H](CO)C(=O)N[C@@H](Cc1ccc(O)cc1)C(=O)N[C@@H](CCCNC(=N)N)C(=O)N[C@@H](CCCCN)C(=O)N[C@H](C(=O)N[C@@H](CC(C)C)C(=O)NCC(=O)N[C@@H](CCC(N)=O)C(=O)N[C@@H](CC(C)C)C(=O)N[C@@H](CO)C(=O)N[C@@H](C)C(=O)N[C@@H](CCCNC(=N)N)C(=O)N[C@@H](CCCCN)C(=O)N[C@@H](CC(C)C)C(=O)N[C@@H](CC(C)C)C(=O)N[C@@H](CCC(N)=O)C(=O)N[C@@H](CC(=O)O)C(=O)N[C@H](C(=O)N[C@@H](CC(C)C)C(=O)N[C@@H](CC(N)=O)C(=O)N[C@@H](CCCNC(=N)N)C(=O)N[C@@H](CCC(N)=O)C(=O)N[C@@H](CCC(N)=O)C(=O)NCC(N)=O)[C@@H](C)CC)C(C)C)[C@@H](C)O [Compound 4, D-Ala², Cya³, Leu²⁷-bGRF(1-32)NH₂] (H-Y[dA][Cya]AIFTNSYRKVLGQLSARKLLQDILNRQQG-NH2)	76%	–	0.29	233%	–
CC[C@H](C)[C@H](NC(=O)[C@H](C)NC(=O)[C@H](CS(=O)(=O)O)NC(=O)[C@@H](C)NC(=O)[C@@H](N)Cc1c[nH]cn1)C(=O)N[C@@H](Cc1ccccc1)C(=O)N[C@H](C(=O)N[C@@H](CC(N)=O)C(=O)N[C@@H](CO)C(=O)N[C@@H](Cc1ccc(O)cc1)C(=O)N[C@@H](CCCNC(=N)N)C(=O)N[C@@H](CCCCN)C(=O)N[C@H](C(=O)N[C@@H](CC(C)C)C(=O)NCC(=O)N[C@@H](CCC(N)=O)C(=O)N[C@@H](CC(C)C)C(=O)N[C@@H](CO)C(=O)N[C@@H](C)C(=O)N[C@@H](CCCNC(=N)N)C(=O)N[C@@H](CCCCN)C(=O)N[C@@H](CC(C)C)C(=O)N[C@@H](CC(C)C)C(=O)N[C@@H](CCC(N)=O)C(=O)N[C@@H](CC(=O)O)C(=O)N[C@H](C(=O)N[C@@H](CC(C)C)C(=O)N[C@@H](CC(N)=O)C(=O)N[C@@H](CCCNC(=N)N)C(=O)N[C@@H](CCC(N)=O)C(=O)N[C@@H](CCC(N)=O)C(=O)NCC(N)=O)[C@@H](C)CC)C(C)C)[C@@H](C)O [Compound 7, His¹, D-Ala², Cya³, Leu²⁷-bGRF(1-32)NH₂] (H-H[dA][Cya]AIFTNSYRKVLGQLSARKLLQDILNRQQG-NH2)	69%	–	0.06	126%	–
CC[C@H](C)[C@H](NC(=O)[C@H](C)NC(=O)[C@H](CS(=O)(=O)O)NC(=O)[C@@H](C)NC(=O)[C@@H](N)Cc1ccc(O)cc1)C(=O)N[C@@H](Cc1ccccc1)C(=O)N[C@H](C(=O)N[C@@H](CC(N)=O)C(=O)N[C@@H](CO)C(=O)N[C@@H](Cc1ccc(O)cc1)C(=O)N[C@@H](CCCNC(=N)N)C(=O)N[C@@H](CCCCN)C(=O)N[C@H](C(=O)N[C@@H](CC(C)C)C(=O)N[C@@H](C)C(=O)N[C@@H](CCC(N)=O)C(=O)N[C@@H](CC(C)C)C(=O)N[C@@H](CO)C(=O)N[C@@H](C)C(=O)N[C@@H](CCCNC(=N)N)C(=O)N[C@@H](CCCCN)C(=O)N[C@@H](CC(C)C)C(=O)N[C@@H](CC(C)C)C(=O)N[C@@H](CCC(N)=O)C(=O)N[C@@H](CC(=O)O)C(=O)N[C@H](C(=O)N[C@@H](CC(C)C)C(=O)N[C@@H](CC(N)=O)C(=O)N[C@@H](CCCNC(=N)N)C(=O)N[C@@H](CCC(N)=O)C(=O)N[C@@H](CCC(N)=O)C(=O)NCC(N)=O)[C@@H](C)CC)C(C)C)[C@@H](C)O [Compound 8, D-Ala², Cya³, Ala¹⁵, Leu²⁷-bGRF(1-32)NH₂] (H-Y[dA][Cya]AIFTNSYRKVLAQLSARKLLQDILNRQQG-NH2)	95%	–	1.34	307%	potency (in words) [1]: high potency; proteolytic stability in bovine plasma (in words) [2]: good stability
Cya²⁵, Leu²⁷bGRF(1-32)NH₂ [Compound 1]	–	100%	–	–	the potency of bGRF(1-44)NH₂ [1, 4]: 0.53; serum growth hormone (GH) response, difference from Leu²⁷ bGRF(1-32)NH₂ [3, 6]: No significant differences

Further lines, with some results ahead:

remaining at 1 h [2]	Compound	area under the GH response curve [3, 6]	the potency of bGRF(1-44)NH₂ [1]	relative growth hormone areas [3]	also measured
81%	CC[C@H](C)[C@H](NC(=O)[C@H](C)NC(=O)[C@H](CS(=O)(=O)O)NC(=O)[C@H](C)NC(=O)CCc1ccc(O)cc1)C(=O)N[C@@H](Cc1ccccc1)C(=O)N[C@H](C(=O)N[C@@H](CC(N)=O)C(=O)N[C@@H](CO)C(=O)N[C@@H](Cc1ccc(O)cc1)C(=O)N[C@@H](CCCNC(=N)N)C(=O)N[C@@H](CCCCN)C(=O)N[C@H](C(=O)N[C@@H](CC(C)C)C(=O)N[C@@H](C)C(=O)N[C@@H](CCC(N)=O)C(=O)N[C@@H](CC(C)C)C(=O)N[C@@H](CO)C(=O)N[C@@H](C)C(=O)N[C@@H](CCCNC(=N)N)C(=O)N[C@@H](CCCCN)C(=O)N[C@@H](CC(C)C)C(=O)N[C@@H](CC(C)C)C(=O)N[C@@H](CCC(N)=O)C(=O)N[C@@H](CC(=O)O)C(=O)N[C@H](C(=O)N[C@@H](CC(C)C)C(=O)N[C@@H](CC(N)=O)C(=O)N[C@@H](CCCNC(=N)N)C(=O)N[C@@H](CCC(N)=O)C(=O)N[C@@H](CCC(N)=O)C(=O)NCC(N)=O)[C@@H](C)CC)C(C)C)[C@@H](C)O [Compound 9, Desamino-Tyr¹, Cya³, Ala¹⁵, Leu²⁷-bGRF(1-32)NH₂] (Desaminotyrosyl-A[Cya]AIFTNSYRKVLAQLSARKLLQDILNRQQG-NH2)	–	–	260%	the potency of bGRF(1-44)NH₂ [1, 5]: 2.24; potency (in words) [1]: high potency; proteolytic stability in bovine plasma (in words) [2]: good stability
65%	CC[C@H](C)[C@H](NC(=O)[C@H](C)NC(=O)[C@H](CC(=O)O)NC(=O)[C@H](C)NC(=O)Cc1ccc(O)cc1)C(=O)N[C@@H](Cc1ccccc1)C(=O)N[C@H](C(=O)N[C@@H](CO)C(=O)N[C@@H](CO)C(=O)N[C@@H](Cc1ccc(O)cc1)C(=O)N[C@@H](CCCNC(=N)N)C(=O)N[C@@H](CCCNC(=N)N)C(=O)N[C@H](C(=O)N[C@@H](CC(C)C)C(=O)N[C@@H](C)C(=O)N[C@@H](CCC(N)=O)C(=O)N[C@@H](CC(C)C)C(=O)N[C@@H](CO)C(=O)N[C@@H](C)C(=O)N[C@@H](CCCNC(=N)N)C(=O)N[C@@H](CCCNC(=N)N)C(=O)N[C@@H](CC(C)C)C(=O)N[C@@H](CC(C)C)C(=O)N[C@@H](CCC(N)=O)C(=O)N[C@@H](CS(=O)(=O)O)C(=O)N[C@H](C(=O)N[C@@H](CC(C)C)C(=O)N[C@@H](CO)C(=O)N[C@@H](CCCNC(=N)N)C(=O)N[C@@H](CCC(N)=O)C(=O)N[C@@H](CCC(N)=O)C(=O)NCC(N)=O)[C@@H](C)CC)C(C)C)[C@@H](C)O [Compound 15, Desamino PHPG¹, Ser⁸, Arg¹², Ala¹⁵, Cya²⁵, Leu²⁷, Ser²⁸, bGRF(1-32)NH₂] (X1-ADAIFTSSYRRVLAQLSARRLLQ[Cya]ILSRQQG-NH2)	–	–	–	the potency of bGRF(1-44)NH₂ ([1]; another assay, potency as a fraction of bGRF(1-44)NH₂): 0.97
47%	YADAIFTNSYRKVLGQLSARKLLQDILNRQQG-NH2 [Leu²⁷ bGRF(1-32)NH₂, reference compound]	122%	–	–	serum growth hormone (GH) response, difference from bGRF(1-44)NH₂ ([3]; 3nM/100 kg bodyweight, single iv injection, compared with bGRF(1-44)NH₂): No significant differences

— patent EP0326418A1, “GRF analogs” (THE UPJOHN COMPANY, priority 1988, dated 1989)
